Measurements reported in patent publication EP4268823A1, “COMPOUND FOR TREATING NEUROINFLAMMATION” (Universitätsklinikum Hamburg-Eppendorf, priority 2022, dated 2023).

What was measured:
[1] = test system: primary neuronal cultures; assay: Oxidative stress detection with CellROX green reagent after glutamate; assay type: cell-based, mouse; details: 20 µM glutamate 1 hour, UNC0642 pre-treatment
Experimental: (§1) For primary cortical cultures pregnant C57BL/6J, or G9afl/fl;Snap25-Cre mice were euthanized. To ensure comparability between genotypes, only embryos from heterozygous breeding's were used. Brainstem tissue of each embryo for genotyping was reserved and cortices were isolated, dissociated and cells were plated at a density of 1 × 10^5 cells per 1 cm^2 on poly-D-lysine-coated wells (5 µM Sigma-Aldrich, cat. no. A-003-M). If not stated otherwise, cells were maintained in neurobasal plus medium (supplemented with B27 plus, penicillin, streptomycin and L-glutamine; Gibco, cat. no. A3582901) at 37°C, 5% CO^2 and a relative humidity of 98%, and treated with 1 µM cytarabine (Sigma-Aldrich, cat. no. BP383) at 1 day in vitro (div) to inhibit glial cell proliferation. If no cytarabine was applied cells were maintained in PNBM medium (supplemented with neural cell survival factor, gentamycin and L-glutamine; Lonza). Throughout, cultures after 14-23 div were used for experiments. G9a inhibitor UNC0642 was used in a concentration of 1 µM and cultures were pre-treated 24 hours before further experimental procedures.
For the detection of oxidative stress in response to glutamate treatment, CellROX green reagent (Thermofisher) was used. […] Immunofluorescence of nuclear CellROX dye was quantified using Fiji (ImageJ).

primary neurons = assay: Cell death induction, dead neurons with CellTox green reagent; assay type: cell-based, mouse; details: 1 µM UNC0642 pre-treated 24 hours
Experimental: as §1
Primary neurons were subjected to dedicated compounds initiating either apoptosis (stauro-sporine), necroptosis (TNF-α + LCL-161 + Z-VAD-FMK, or shikonin), or ferroptosis (RSL3, or erastin) for 48 h in G9afl/fl;Snap25-Cre cultures, or cultures pre-treated for 24 hours with 1 µM UNC0642. Together with the cell death inducing compounds, CellToxTM Green Cytotoxicity Assay (Promega) was added to primary neurons 1:2000. Before fixation with 4% paraformaldehyde, cells were counterstained with Hoechst […]. Neurons were imaged on a Zeiss LSM 700 confocal microscope using 20× magnification.

Structure (SMILES): COc1cc2c(NC3CCN(C(C)C)CC3)nc(N3CCC(F)(F)CC3)nc2cc1OCCCN1CCCC1 [UNC0642, 2-(4,4-difluoropiperidin-1-yl)-6-methoxy-N-[1-(propan-2-yl)piperidin-4-yl]-7-[3-(pyrrolidin-1-yl)propoxy]quinazolin-4-amine]
- generation of ROS (CellROX green) [1]: reduced the generation of ROS close to baseline levels
- ferroptosis (dead neurons) induced by RSL3 (primary neurons; 48 h inducer): substantially rescued
- ferroptosis (dead neurons) induced by erastin (primary neurons; 48 h inducer): substantially rescued
- necroptosis (dead neurons) (primary neurons; TNF-α + LCL-161 + Z-VAD-FMK, or shikonin, 48 h): neither apoptosis nor necroptosis was affected
- apoptosis (dead neurons) (primary neurons; staurosporine 48 h): neither apoptosis nor necroptosis was affected
